Values joined by “and” are separate entries in the source; they are usually repeats but may differ in a detail not shown here. Equal entries are not always repeated. Toxic doses and inconclusive results are not listed. How the source made its calls: active means survival T/C of 150% or more; inactive means T/C below 125% in these data.
Tested on: BDF1 mice, P388 leukemia ip, median survival T/C
Assay: NCI In Vivo Anticancer Drug Screen. Data for tumor model P388 Leukemia (intraperitoneal) in B6D2F1 (BDF1) mice
Conditions: endpoint: median survival time, higher = longer survival
Outline: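 Transplantable tumour in mice; compound vs vehicle dosing; survival scored; ratio of treated to control reported.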

[1] = dose: 50.0 mg/kg/injection, schedule: Q01DX009 (ip), vehicle: saline
[2] = dose: 100.0 mg/kg/injection, schedule: Q01DX009 (ip), vehicle: saline
[3] = dose: 100.0 mg/kg/injection, schedule: Q04DX003 (ip), vehicle: saline
[4] = dose: 100.0 mg/kg/injection, schedule: Q01DX001 (ip), vehicle: Klucel (hydroxypropylcellulose) (HPC)
[5] = dose: 200.0 mg/kg/injection, schedule: Q01DX001 (ip), vehicle: Klucel (hydroxypropylcellulose) (HPC)
[6] = dose: 400.0 mg/kg/injection, schedule: Q01DX001 (ip), vehicle: Klucel (hydroxypropylcellulose) (HPC)
[7] = dose: 100.0 mg/kg/injection, schedule: Q01DX009 (ip), vehicle: Klucel (hydroxypropylcellulose) (HPC)
[8] = dose: 200.0 mg/kg/injection, schedule: Q01DX009 (ip), vehicle: Klucel (hydroxypropylcellulose) (HPC)

Measured: T/C

CC1(C)N=C(N)N=C(N)N1c1cccc(CCCCc2ccc(S(=O)(=O)F)cc2Cl)c1
inactive: dose: 3.13 mg/kg/injection, schedule: Q01DX009 (ip), vehicle: saline sonified 109 % of control | dose: 4.0 mg/kg/injection, schedule: Q01DX009 (ip), vehicle: saline 116 % of control | dose: 4.0 mg/kg/injection, schedule: Q04DX003 (ip), vehicle: saline with Tween-80 100 % of control | dose: 6.0 mg/kg/injection, schedule: Q04DX003 (ip), vehicle: saline with Tween-80 113 % of control | dose: 6.25 mg/kg/injection, schedule: Q01DX009 (ip), vehicle: saline 116 % of control | dose: 9.0 mg/kg/injection, schedule: Q04DX003 (ip), vehicle: saline with Tween-80 118 % of control | dose: 9.4 mg/kg/injection, schedule: Q01DX009 (ip), vehicle: saline 116 % of control

CN1c2c(nc(N)[nH]c2=O)NCC1CCNc1ccc(C(=O)NC(CCC(=O)O)C(=O)O)cc1 (stereo unspecified)
inactive: dose: 6.25 mg/kg/injection, schedule: Q01DX009 (ip), vehicle: other 100 % of control | dose: 12.5 mg/kg/injection, schedule: Q01DX009 (ip), vehicle: other 100 % of control | dose: 25.0 mg/kg/injection, schedule: Q01DX009 (ip), vehicle: other 109 % of control | dose: 50.0 mg/kg/injection, schedule: Q01DX009 (ip), vehicle: other 109 % of control | [1] 104 % of control | [2] 112 % of control | [3] 109 % of control | dose: 200.0 mg/kg/injection, schedule: Q01DX009 (ip), vehicle: other 118 % of control | dose: 200.0 mg/kg/injection, schedule: Q01DX009 (ip), vehicle: saline 122 % of control | dose: 200.0 mg/kg/injection, schedule: Q04DX003 (ip), vehicle: saline 109 % of control | dose: 400.0 mg/kg/injection, schedule: Q04DX003 (ip), vehicle: saline 90 % of control

Nc1cc(C(F)(F)F)ccc1S(=O)(=O)O
inactive: [4] 100 % of control | [5] 100 % of control | [6] 100 % of control

CCOC1(CC)CN(Cc2ccccc2)CCO1 (stereo unspecified)
inactive: [4] 121 % of control | [5] 121 % of control | [6] 115 % of control

CCOC(=O)C(N=C=S)C(C)CC (stereo unspecified)
inactive: dose: 100.0 mg/kg/injection, schedule: Q01DX001 (ip), vehicle: saline with Tween-80 115 % of control | dose: 200.0 mg/kg/injection, schedule: Q01DX001 (ip), vehicle: saline with Tween-80 107 % of control | dose: 400.0 mg/kg/injection, schedule: Q01DX001 (ip), vehicle: saline with Tween-80 118 % of control

CC[C@@H](c1ccc(O)cc1)[C@@H](CC)c1ccc(O)cc1
inactive: [1] 90 % of control | [2] 109 % of control | dose: 100.0 mg/kg/injection, schedule: Q04DX003 (ip), vehicle: alcohol 94 % of control | dose: 200.0 mg/kg/injection, schedule: Q04DX003 (ip), vehicle: alcohol 100 % of control

O=C1NC(c2ccccc2Cl)Nc2ccccc21 (stereo unspecified)
inactive: [7] 100 % of control and 115 % of control | [8] 115 % of control and 120 % of control

O=C1/C(=C/c2ccco2)CC2CCCCC12 (stereo unspecified)
inactive: dose: 50.0 mg/kg/injection, schedule: Q01DX009 (ip), vehicle: Klucel (hydroxypropylcellulose) (HPC) 104 % of control | dose: 75.0 mg/kg/injection, schedule: Q01DX001 (ip), vehicle: other 100 % of control | dose: 75.0 mg/kg/injection, schedule: Q01DX009 (ip), vehicle: Klucel (hydroxypropylcellulose) (HPC) 113 % of control | dose: 150.0 mg/kg/injection, schedule: Q01DX001 (ip), vehicle: other 104 % of control | dose: 150.0 mg/kg/injection, schedule: Q01DX009 (ip), vehicle: Klucel (hydroxypropylcellulose) (HPC) 100 % of control

N=C1C=C[C@]2(O)C[C@H](Cl)CN12
inactive: dose: 0.38 mg/kg/injection, schedule: Q01DX009 (ip), vehicle: saline 104 % of control | dose: 0.75 mg/kg/injection, schedule: Q01DX009 (ip), vehicle: saline 104 % of control | dose: 1.5 mg/kg/injection, schedule: Q01DX009 (ip), vehicle: saline 114 % of control | dose: 3.0 mg/kg/injection, schedule: Q01DX009 (ip), vehicle: saline 98 % of control | dose: 6.0 mg/kg/injection, schedule: Q01DX009 (ip), vehicle: saline 117 % of control

O=C(O)CSc1ccc(NC(=O)Nc2ccccc2F)cc1
inactive: [7] 105 % of control | [8] 105 % of control | dose: 400.0 mg/kg/injection, schedule: Q01DX009 (ip), vehicle: Klucel (hydroxypropylcellulose) (HPC) 105 % of control

CCOP1(=O)N(C)CCN1C
inactive: [1] 95 % of control

CCC1(c2ccccc2)NC(=O)N(C)C1=O (stereo unspecified)
inactive: [7] 100 % of control | dose: 100.0 mg/kg/injection, schedule: Q04DX003 (ip), vehicle: Klucel (hydroxypropylcellulose) (HPC) 104 % of control | [8] 100 % of control | dose: 200.0 mg/kg/injection, schedule: Q04DX003 (ip), vehicle: Klucel (hydroxypropylcellulose) (HPC) 95 % of control | dose: 400.0 mg/kg/injection, schedule: Q04DX003 (ip), vehicle: Klucel (hydroxypropylcellulose) (HPC) 95 % of control

CC(NC(=O)OCc1ccccc1)C(=O)NC(CC(=O)O)C(=O)O (stereo unspecified)
inactive: dose: 25.0 mg/kg/injection, schedule: Q04DX003 (ip), vehicle: saline 100 % of control | dose: 50.0 mg/kg/injection, schedule: Q04DX003 (ip), vehicle: saline 100 % of control | [3] 110 % of control

COB(CCCCB(OC)OC)OC
inactive: dose: 100.0 mg/kg/injection, schedule: Q04DX003 (ip), vehicle: saline sonified 90 % of control | dose: 200.0 mg/kg/injection, schedule: Q04DX003 (ip), vehicle: saline sonified 86 % of control | dose: 400.0 mg/kg/injection, schedule: Q04DX003 (ip), vehicle: saline sonified 100 % of control

CCSc1c(S)cnn(C)c1=O
inactive: dose: 50.0 mg/kg/injection, schedule: Q01DX005 (ip), vehicle: saline with Tween-80 90 % of control | dose: 100.0 mg/kg/injection, schedule: Q01DX005 (ip), vehicle: saline with Tween-80 90 % of control | dose: 200.0 mg/kg/injection, schedule: Q01DX005 (ip), vehicle: saline with Tween-80 97 % of control

Reference: PubChem BioAssay AID328 (DTP/NCI, 2004)
